{
  "source": "patent US11246936B2",
  "about": "“Compositions and methods using rebaudioside X to provide sweetness enhancement” (The Coca-Cola Company, priority 2013, dated 2022)",
  "key": {"[1]": {"test_system": "panelists", "experiment": "Taste evaluation of lemon-lime carbonated soft drinks against HFCS-55 controls", "format": "in vivo, human", "protocol": "Lemon-lime carbonated soft drinks (CSD) were made by dissolving all ingredients in an amount of water sufficient to make a syrup from which finished beverages were made by adding 5.5 parts carbonated water to 1 part syrup (beverage carbonation target of 3.7 volumes of CO2). Products were prepared with the ingredients provided in Table 8: The beverages were aged for seven days at room temperature and then cooled at 4° C. before tasting. Four panelists evaluated the beverages. Bottles were removed from the refrigerator and about 20 ml of beverage poured in 2 oz-plastic cups. Mineral water was given for palate rinsing before tasting and between tasting different samples."}, "[2]": {"test_system": "human sense of taste", "experiment": "Sweetness recognition threshold", "format": "in vivo", "from_the_text": "The term “sweetness recognition threshold,” as generally used herein, is the lowest known concentration of a sweet compound that is perceivable by the human sense of taste. As such, rebaudioside X enhances or potentiates the sweet taste of sweeteners without providing any noticeable sweet taste by itself when present below its sweetness recognition threshold concentration. However, rebaudioside X may provide a detectable sweet taste at concentrations above its sweetness recognition threshold. The sweetness recognition threshold of rebaudioside X is about 20 to about 30 ppm.\nThe term “sucrose equivalence,” as used herein, refers to the sweetness of a composition containing at least one […] sweetener against a sucrose reference. Typically, taste panelists are trained to detect sweetness of reference sucrose solutions containing between 1-15% sucrose (w/v). Other non-sucrose sweeteners are then tasted at a series of dilutions to determine the concentration of the non-sucrose, i.e. rebaudioside X, sweetener that is as sweet (i.e. isosweet) to a given percent sucrose reference."}, "[3]": {"test_system": "panelists", "experiment": "Taste evaluation of sweetness against sucrose reference beverages (water and citric acid buffer)", "format": "in vivo, human", "protocol": "Solutions were made by dissolving all ingredients in treated water. For citric acid buffer, citric acid and potassium citrate were added in a sufficient amount to bring the pH to 3.2. Finished products were filled in 300 ml-glass bottles and stored in the refrigerator. The Rebaudioside X used was 95% pure and obtained from Pure Circle. Beverages were kept in the refrigerator overnight and tasted cold the following day. Two panelists evaluated the beverages. Bottles were removed from the refrigerator and about 50 ml of the beverage was poured in 4 oz-plastic cups. Taste test were conducted in two sessions for each type of solution: water and citric acid buffer. In the first session, the sweetness level of the beverages containing 20 ppm and 30 ppm rebaudioside X were determined against the 0.5%, 1%, and 1.5% sucrose beverages. In the second session, the sweetness level of the beverages containing 7% sucrose and either 20 ppm or 30 ppm rebaudioside X were determined against the 7%, 8%, 9%, and 10% sucrose beverages. Panelists were given mineral water for rinsing before tasting and between tasting different samples. Unsalted crackers were also given to panelists to eat followed by rinsing their mouth with mineral water before tasting the next sample."}},
  "data": [
    {"molecule": "C=C1C[C@@]23CC[C@H]4[C@@](C)(CCC[C@@]4(C)C(=O)O[C@@H]4O[C@H](CO)[C@@H](O)[C@H](O[C@@H]5O[C@H](CO)[C@@H](O)[C@H](O)[C@H]5O)[C@H]4O[C@@H]4O[C@H](CO)[C@@H](O)[C@H](O)[C@H]4O)[C@@H]2CC[C@]1(O[C@@H]1O[C@H](CO)[C@@H](O)[C@H](O[C@@H]2O[C@H](CO)[C@@H](O)[C@H](O)[C@H]2O)[C@H]1O[C@@H]1O[C@H](CO)[C@@H](O)[C@H](O)[C@H]1O)C3", "note": "[rebaudioside X, 13-[(2-O-β-D-glucopyranosyl-3-O-β-D-glucopyranosyl-β-D-glucopyranosyl)oxy] ent kaur-16-en-19-oic acid-[(2-O-β-D-glucopyranosyl-3-O-β-D-glucopyranosyl-β-D-glucopyranosyl) ester]]", "values": [
      {"measurement": "overall sweetness similar to HFCS-55 beverage", "setting": "[1]; 8% HFCS-55 and 30 ppm rebaudioside X in lemon lime CSD, four panelists, 10% HFCS-55 same sweetness as 10% sucrose", "value": "about 10 % HFCS-55"},
      {"measurement": "sweetness enhancement", "setting": "[1]; 30 ppm rebaudioside X added to a beverage containing 8% HFCS-55 (same sweetness as 8% sucrose)", "value": "about 2.0%"},
      {"measurement": "sucrose equivalence provided at the sweetness recognition threshold", "setting": "[2]; at about 20-30 ppm rebaudioside X", "value": "1.0-1.5%"},
      {"measurement": "sweetness recognition threshold", "setting": "[2]; lowest concentration perceivable by the human sense of taste", "value": "20-30 ppm"},
      {"measurement": "overall sweetness similar to sucrose beverage", "setting": "[3]; 7% sucrose and 20 ppm rebaudioside X in water or citric acid buffer, between the 9% and 10% sucrose beverage (average)", "value": "~9.5", "unit": "% sucrose"},
      {"measurement": "overall sweetness similar to sucrose beverage", "setting": "[3]; 7% sucrose and 30 ppm rebaudioside X in either water or citric acid buffer", "value": "~10", "unit": "% sucrose"},
      {"measurement": "sweetness enhancement", "setting": "[3]; 20 and 30 ppm rebaudioside X added to a beverage containing 7% sucrose", "value": "about 1.5%"},
      {"measurement": "increase in isosweetness provided by rebaudioside X", "setting": "[3]; 20 ppm rebaudioside X in 7.0% (w/v) sucrose beverage", "value": "2.5 % (w/v)"},
      {"measurement": "overall sweetness similar to sucrose beverage", "setting": "[3]; 20 ppm rebaudioside X in either water or citric acid buffer (pH 3.2), two panelists, tasted cold", "value": "~1", "unit": "% sucrose"},
      {"measurement": "overall sweetness similar to sucrose beverage", "setting": "[3]; 30 ppm rebaudioside X in either water or citric acid buffer (pH 3.2), two panelists, tasted cold", "value": "~1.5", "unit": "% sucrose"},
      {"measurement": "isosweet sucrose solution", "setting": "[3]; beverage containing 7.0% (w/v) sucrose and 20 ppm rebaudioside X", "value": "9.5 % (w/v)"},
      {"measurement": "isosweet sucrose solution", "setting": "[3]; solution containing 20 ppm rebaudioside X, no other sweetener", "value": "1.0 % (w/v)"}
    ]}
  ]
}
